TGI and GI50 data for 14 molecules are collected here from PubChem BioAssay (NCI).

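Tested at 5 concentrations; 48 h exposure; 96-well plates; endpoints linearly interpolated, else capped at highest concentration. At the GI50, growth is halved. TGI: total growth inhibition.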

Holding throughout (assay): NCI anticancer screen, dose series, 48 h
Assay [1] deals with SK-MEL-28 melanoma.
Assay [2] has as its system CCRF-CEM leukemia.
The subject of assay [3] is SF-295 CNS.
The test system of assay [4] is HCT-15 colon.
The test system of assay [5] is SK-OV-3 ovarian.
In assay [6] the test system is LOX IMVI melanoma.
For assay [7], the system named is SW-620 colon.
Assay [8] concerns MCF7 breast.
Assay [9] has as its system DU-145 prostate.
Assay [10] relates to NCI/ADR-RES ovarian.

As for `C/C(CCn1[nH]c(=O)ccc1=O)=N\NC(=O)C(=O)NN`, the TGI in assay [1], in assay [2], in assay [3], in assay [4], in assay [5] and in assay [6] was greater than 100 µM in each case. In assay [7], this molecule came in with a TGI greater than 100 µM.

Turning to `CC(C)=CCC(O)C1=CC(=O)c2c(O)ccc(O)c2C1=O` (stereo unspecified), the TGI in [1] was 2.86 µM; in assay [2], 0.399 µM; in assay [8], 2.11 µM; in assay [9] it was 2.5 µM; in [3], 9.3 µM; in assay [4], 0.526 µM. The TGI in assay [5] stood at 24 µM; in [6], 2.63 µM; in [7], 3.3 µM.

`CCCCCC[C@@H]1CCC2C(CO)[C@@H](O)CC[C@@H]2C1` (stereo partly specified): the TGI in assay [1] was found to be 34.3 µM; in assay [2], 79.9 µM; in assay [3] it was 30.3 µM; in [4], 33.4 µM; in [6], 34.6 µM; in [7], 39.2 µM.

In the case of `O=C(Nc1ccccc1-c1nn(C(=S)Nc2ccccc2)c(=S)n(C(=S)Nc2ccccc2)c1=O)C(F)(F)F`, the TGI in [1] was greater than 100 µM; in assay [2], 62.1 µM; in [3], greater than 100 µM; in [4], greater than 78.3 µM; in assay [5] it was greater than 100 µM; in assay [6] it was greater than 66.1 µM. Further, in [7], the TGI was greater than 64.7 µM.

As for `c1ccc(NCn2cnc3ccccc32)cc1`, the TGI in [1], in assay [2], in [3], in assay [4], in [5] and in assay [6] was greater than 100 µM each time. The TGI in [7] was greater than 100 µM.

As for `N[C@@H]1CCCC[C@@H]1N.O=P([O-])([O-])CN(CCN(CP(=O)([O-])[O-])CP(=O)([O-])[O-])CP(=O)([O-])[O-].[Pt+2]`, the GI50 in assay [1], in assay [3], in assay [4], in [5], in [6] and in assay [7] was greater than 25 µM in each case. Moreover, the TGI in assay [1], in [3], in assay [4], in assay [5], in assay [6] and in assay [7] was greater than 25 µM each time.

Turning to `CCOC(=O)C1=C(C(=O)OCC)C2c3ccccc3C=CN2C(C(=O)OCC)=C(SC)S1` (stereo unspecified), the TGI in [1], in assay [2], in assay [3], in assay [4], in [5] and in assay [6] was greater than 100 µM throughout. Also, in assay [7], the TGI is greater than 100 µM.

As for `O=C1CCC2(c3ccc(Cl)cc3)Nc3ccncc3N12` (stereo unspecified), the TGI in [2], in assay [10], in assay [9], in assay [3], in assay [4] and in [5] was greater than 10 µM in each case. Further, the TGI in assay [6] and in assay [7] was greater than 10 µM throughout.

As to `COC(=O)CC(c1ccccc1)C1(c2ccccc2)SCCS1` (stereo unspecified), the TGI in assay [1], in assay [2], in assay [3], in assay [4], in assay [5] and in assay [6] was greater than 290 µM throughout. Further, in assay [7], the TGI is greater than 290 µM.

`NC(=O)C(=Cn1c(=S)[nH]c2ccc([N+](=O)[O-])cc21)C(N)=O`: the TGI in [1], in assay [10], in assay [9], in assay [3], in [4] and in assay [5] was greater than 100 µM in each case. Further, the TGI in [6] and in [7] was greater than 100 µM throughout.

`Cc1ccc(-n2c3nc(=O)[nH]c(=O)c-3cc3cc([N+](=O)[O-])ccc32)cc1`: the GI50 in assay [1] is 15.7 µM; in assay [2], 4.67 µM; in assay [10], 10.7 µM; in assay [9], 22.9 µM; in assay [3] it was 15.9 µM; in assay [4] it was 25.5 µM. The GI50 in assay [5] is 37.1 µM; in assay [6], 4.77 µM; in assay [7], 4.71 µM. The TGI in assay [1] is 42.2 µM; in assay [2] it was greater than 100 µM; in assay [10], 34.4 µM; in [9], 55.1 µM; in assay [3] it was 37.3 µM; in assay [4], greater than 100 µM. Besides, the TGI in assay [5] was greater than 100 µM; in [6], 21.5 µM; in [7], greater than 100 µM.

For `CC(C)(C)c1cc2c(O)c3cccc4c(=O)c5cccc6c5-c(c34)c2c(c1)c6=O`, the TGI in [2], in assay [3], in [4], in assay [5], in assay [6] and in [7] was greater than 100 µM each time.

With `Cc1ccc(/C=C/C(=O)c2cccc3ccccc23)cc1`, the TGI in [1] amounted to 35.4 µM; in assay [2] it was 67 µM; in assay [3], 31.7 µM; in assay [4], 35.3 µM; in [5] it was 62.5 µM; in assay [7], 26.2 µM.

With `O=C(/C(=C/c1ccc([N+](=O)[O-])cc1)SCc1ccccc1)c1ccc(Cl)cc1`, the GI50 in assay [1] is 4.09 µM; in [2], 2.12 µM; in [10], 3.38 µM; in [9] it was 3.6 µM; in assay [3], 5.54 µM; in [4], 2.14 µM. The values for the GI50 in [5], in assay [6] and in [7] were 14.4 µM, 1.69 µM and 1.83 µM, respectively. In addition, the TGI in [1] is 15.3 µM; in [2], greater than 100 µM; in assay [10], 17.7 µM; in [9] it was 13.8 µM; in assay [3] it was 18.9 µM; in assay [4], 5.41 µM. Besides, the TGI worked out at 36.4 µM in assay [5], 3.12 µM in assay [6] and 4.15 µM in [7].
